Assay results published in US20110065753A1, “METHODS OF TREATING POXVIRAL INFECTIONS” (priority 2009, published 2011).
Several values for one entry are separate records, joined by “and”; a condition that tells them apart may be missing. Equal values may be shown once.

Legend:
[1] = Iminosugar safety study, C57/B1/6 mice; settings: oral suspension twice a day for 7 days at 100 and 10 mg/kg
Vaccinia NYCBOH strain = format: cell-based; settings: read-out: IC50, inhibition of infectivity of Vaccinia virus
[2] = Iminosugar safety study, BALB/c mice; settings: for weight loss compared to vehicle only control: oral suspension twice a day for 7 days at 100 and 10 mg/kg
[3] = mouse, in vivo
Cowpox Brighton = format: in vivo, BALB/C mice; settings: n=10

## CCCCN1C[C@H](O)[C@@H](O)[C@H](O)[C@H]1CO [UV-1, N-Butyl deoxynojirimycin]
[1]
  weight loss compared to vehicle only control: did not show any significant signs of weight loss
Vaccinia NYCBOH strain
  IC50: 90 µM
[2]
  weight loss compared to vehicle only control: did not show any significant signs of weight loss

## CCCCCCCCCN1C[C@H](O)[C@@H](O)[C@H](O)[C@H]1CO [UV-2, N-Nonyl deoxynojirimycin]
Vaccinia NYCBOH strain
  IC50: 21 µM

## CCCOCCCCCCN1C[C@H](O)[C@@H](O)[C@H](O)[C@H]1CO [UV-3, N-(7-Oxadecyl)deoxynojirimycin]
Vaccinia NYCBOH strain
  IC50: 7 µM

## COCCCCCCCCCN1C[C@H](O)[C@@H](O)[C@H](O)[C@H]1CO [UV-4, N-(9-Methoxynonyl) deoxynojirimycin]
[3]
  weight loss or adverse effects: no weight loss or adverse effects observed
[1]
  weight loss compared to vehicle only control: did not show any significant signs of weight loss
Vaccinia NYCBOH strain
  IC50: 59 µM
Cowpox Brighton
  percentage of surviving mice: 100% and 70%
[2]
  weight loss compared to vehicle only control: did not show any significant signs of weight loss

## [N-]=[N+]=Nc1ccc(NCCCCCCN2C[C@H](O)[C@@H](O)[C@H](O)[C@H]2CO)c([N+](=O)[O-])c1 [UV-5, N—(N-{4′-azido-2′-nitrophenyl}-6-aminohexyl)deoxynojirimycin]
[1]
  weight loss compared to vehicle only control: did not show any significant signs of weight loss
Vaccinia NYCBOH strain
  IC50: 3 µM
[2]; highest concentration (100 mg/kg twice a day, 7 days), symptoms ceased when treatment was done
  general health, clinical signs: signs of diarrhea, red urine, and a ruffled appearance
[2]
  weight loss compared to vehicle only control: did not show any significant signs of weight loss
